The values that follow come from publication PMC3157017 (Theranostics, 2011).

For orientation: IC50 means the concentration that inhibits the measured activity by half. Low values mean higher potency, high ones lower potency.

The experiment addresses integrin αvβ3 (Homo sapiens, UniProt P05106+P06756). Briefly: Whole-cell integrin αvβ3 competitive displacement assay against ^125I-c. The experiment is classed as binding.

Regarding `N=C(N)NCCC[C@@H]1NC(=O)[C@H](CCCCNC(=O)CCOCCOCCOCCOCCNC(=O)CN2CCN(CC(=O)O)CCN(CC(=O)O)CCN(CC(=O)O)CC2)NC(=O)[C@@H](Cc2ccccc2)NC(=O)[C@H](CC(=O)O)NC(=O)CNC1=O` [DOTA-P-RGD, DOTA-PEG4-c(RGDfK)], the concentration for half-maximal inhibition (IC50) came to 44.3 ± 3.5 nM.
